tested on: TOM20 ubiquitylation; assay: TOM20-ubiquitylation assay (western blot of cell lysates); assay type: cell-based, Human; conditions: antimycin A/oligomycin mitophagy trigger, concentration for 1.5-fold gain of TOM20-Ub
From the text: TOM20-Ubiquitylation Assay Human cell lines can be challenged with mitochondrial depolarizing agents (ionophores (eg. CCCP, valinomycin), mitochondrial complex inhibitors (oligomycin, antimycin A)) to induce ubiquitylation of TOM20, which is then further promoted in the presence of USP30 inhibitors. TOM20 ubiquitylation is subsequently assessed through western blotting of the cell lysates, with TOM20 ubiquitylation adduct detection possible due to an 8 kDa molecule weight increase for each molecule of ubiquitin added, resulting in laddering of a TOM20 immunoreactive band. TOM20-ubiquitylation levels can be quantified using chemiluminescence densitometry of laddered immunoreactive bands.

Compound	EC1.5x (Geomean, nM); TOM20-Ub 1.5-fold gain [nM]
N#Cc1ccc(C2CC2)c(-c2cnc(C(=O)N(C3CC3)[C@@H]3C[C@@H](Cn4ccnn4)N(C#N)C3)o2)c1 [Example 1, N-((3R,5S)-5-((1H-1,2,3-Triazol-1-yl)methyl)-1-cyanopyrrolidin-3-yl)-5-(5-cyano-2-cyclopropylphenyl)-N-cyclopropyloxazole-2-carboxamide]	17

molecular target: USP30 (Homo sapiens (Human), UniProt Q70CQ3); assay: USP30 biochemical IC50 assay (fluorescence polarisation); conditions: geomean; USP30 4 nM, 30 min pre-incubation, TAMRA-peptide-ubiquitin FP substrate
Sequence (Q70CQ3 57-517): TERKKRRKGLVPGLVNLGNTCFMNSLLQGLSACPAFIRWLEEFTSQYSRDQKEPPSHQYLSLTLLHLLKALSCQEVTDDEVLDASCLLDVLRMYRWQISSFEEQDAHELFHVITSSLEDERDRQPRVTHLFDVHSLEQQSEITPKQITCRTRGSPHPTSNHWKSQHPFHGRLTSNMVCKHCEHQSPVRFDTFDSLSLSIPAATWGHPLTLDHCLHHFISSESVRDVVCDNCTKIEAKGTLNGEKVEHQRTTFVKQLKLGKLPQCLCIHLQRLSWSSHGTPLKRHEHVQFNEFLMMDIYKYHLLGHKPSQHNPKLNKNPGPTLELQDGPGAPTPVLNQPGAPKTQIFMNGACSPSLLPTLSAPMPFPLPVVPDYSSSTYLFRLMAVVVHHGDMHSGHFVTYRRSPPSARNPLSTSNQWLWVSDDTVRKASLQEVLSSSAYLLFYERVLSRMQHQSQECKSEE
Experimental: Dilution plates were prepared at 21 times the final concentration (2100 μM for a final concentration of 100 μM) in 50% DMSO in a 96-well polypropylene V-bottom plate (Greiner #651201). A typical 8-point dilution series would be 100, 30, 10, 3, 1, 0.3, 0.1, 0.03 μM final. Reactions were performed in duplicate in black 384 well plates (small volume, Greiner 784076) in a final reaction volume of 21 μl.
Either lpl of 50% DMSO or diluted compound was added to the plate. USP30 (Boston Biochem #E582) was diluted in reaction buffer (40 mM Tris, pH 7.5, 0.005% Tween 20, 0.5 mg/ml BSA, 5 mM beta-mercaptoethanol) to achieve a final assay concentration of 4 nM, and 10 μl of diluted USP30 was added to the compound. Enzyme and compound were incubated for 30 min at room temp. Reactions were initiated by the addition of 50 nM of TAMRA labelled peptide linked to ubiquitin via an isopeptide bond as fluorescence polarisation substrate. Reactions were read immediately after addition of substrate and following a 2-hour incubation at room temperature. Readings were performed on a Pherastar Plus (BMG Labtech). λ Excitation 540 nm; λ Emission 590 nm.

Compound	IC50 [nM]
N#CN1C[C@H](NC(=O)N2CCC(c3cccc(OC(F)(F)F)c3)C2)C[C@H]1Cn1cccn1 (single isomer, unassigned) [Example 37]	120
N#Cc1ccc(C2CC2)c(-c2cnc(C(=O)N(C3CC3)[C@@H]3C[C@@H](Cn4ccnn4)N(C#N)C3)o2)c1 [Example 1, N-((3R,5S)-5-((1H-1,2,3-Triazol-1-yl)methyl)-1-cyanopyrrolidin-3-yl)-5-(5-cyano-2-cyclopropylphenyl)-N-cyclopropyloxazole-2-carboxamide]	5
CCc1cccc(-c2cnc(C(=O)N[C@@H]3C[C@@H](Cn4ccnn4)N(C#N)C3)o2)c1 [Example 11, N-((3R,5S)-5-((1H-1,2,3-Triazol-1-yl)methyl)-1-cyanopyrrolidin-3-yl)-5-(3-ethylphenyl)oxazole-2-carboxamide]	4
N#Cc1cccc(-c2cnc(C(=O)N[C@@H]3C[C@@H](Cn4cnnc4)N(C#N)C3)o2)c1 [Example 19, N-((3R,5S)-5-((4H-1,2,4-Triazol-4-yl)methyl)-1-cyanopyrrolidin-3-yl)-5-(3-cyanophenyl)oxazole-2-carboxamide]	2
N#CN1C[C@H](NC(=O)c2ncc(-c3cccc(OC(F)(F)F)c3)o2)C[C@H]1Cn1cccn1 [Example 27, N-((3R,5S)-5-((1H-Pyrazol-1-yl)methyl)-1-cyanopyrrolidin-3-yl)-5-(3-(trifluoromethoxy)phenyl)oxazole-2-carboxamide]	9
Cc1ccn(C[C@@H]2C[C@@H](NC(=O)c3ncc(-c4cccc(OC(F)(F)F)c4)o3)CN2C#N)n1 [Example 28, N-((3R,5S)-1-Cyano-5-((3-methyl-1H-pyrazol-1-yl)methyl)pyrrolidin-3-yl)-5-(3-(trifluoromethoxy)phenyl)oxazole-2-carboxamide]	10
Cc1ccnn1C[C@@H]1C[C@@H](NC(=O)c2ncc(-c3cccc(OC(F)(F)F)c3)o2)CN1C#N [Example 29, N-((3R,5S)-1-Cyano-5-((5-methyl-1H-pyrazol-1-yl)methyl)pyrrolidin-3-yl)-5-(3-(trifluoromethoxy)phenyl)oxazole-2-carboxamide]	55
Cn1ncc2cc(-c3ccc(C(=O)N[C@@H]4C[C@@H](Cn5cccn5)N(C#N)C4)c(F)c3)ccc21 [Example 34, N-((3R,5S)-5-((1H-Pyrazol-1-yl)methyl)-1-cyanopyrrolidin-3-yl)-2-fluoro-4-(1-methyl-1H-indazol-5-yl)benzamide]	44
Cn1ncc2cc(-c3ccc(C(=O)N[C@@H]4C[C@@H](Cn5ccnn5)N(C#N)C4)c(F)c3)ccc21 [Example 35, N-((3R,5S)-5-((1H-1,2,3-Triazol-1-yl)methyl)-1-cyanopyrrolidin-3-yl)-2-fluoro-4-(1-methyl-1H-indazol-5-yl)benzamide]	27
N#CN1C[C@H](NC(=O)N2CCC(c3cccc(OC(F)(F)F)c3)C2)C[C@H]1Cn1cccn1 (stereo partly drawn) [Example 36, N-((3R,5S)-5-((1H-Pyrazol-1-yl)methyl)-1-cyanopyrrolidin-3-yl)-3-(3-(trifluoromethoxy)phenyl) pyrrolidine-1-carboxamide]	100
N#CN1C[C@H](NC(=O)N2CCC(c3cccc(OC(F)(F)F)c3)C2)C[C@H]1Cn1cccn1 (stereo partly drawn) [Example 38]	210
N#CN1C[C@H](NC(=O)c2ncc(-c3ccc(F)c(OC(F)(F)F)c3)o2)C[C@H]1Cn1ccnn1 [Example 39, N-((3R,5S)-5-((1H-1,2,3-Triazol-1-yl)methyl)-1-cyanopyrrolidin-3-yl)-5-(4-fluoro-3-(trifluoromethoxy)phenyl)oxazole-2-carboxamide]	8
N#Cc1cnc(N2CCC2)c(-c2nnc(C(=O)N[C@@H]3C[C@@H](Cn4ccnn4)N(C#N)C3)o2)c1 [Example 40, N-((3R,5S)-5-((1H-1,2,3-Triazol-1-yl)methyl)-1-cyanopyrrolidin-3-yl)-5-(2-(azetidin-1-yl)-5-cyanopyridin-3-yl)-1,3,4-oxadiazole-2-carboxamide]	12
N#Cc1cnc(N2CCCC2)c(-c2nnc(C(=O)N[C@@H]3C[C@@H](Cn4ccnn4)N(C#N)C3)o2)c1 [Example 41, N-((3R,5S)-5-((1H-1,2,3-Triazol-1-yl)methyl)-1-cyanopyrrolidin-3-yl)-5-(5-cyano-2-(pyrrolidin-1-yl)pyridin-3-yl)-1,3,4-oxadiazole-2-carboxamide]	9
N#CN1C[C@H](NC(=O)c2ccc(-c3cccc4[nH]ncc34)nc2)C[C@H]1Cn1cccn1 [Example 52, N-((3R,5S)-5-((1H-Pyrazol-1-yl)methyl)-1-cyanopyrrolidin-3-yl)-6-(1H-indazol-4-yl)nicotinamide]	15

Further lines, results first:

IC50 [nM]	Compound
3	N#CN1C[C@H](NC(=O)c2ncc(-c3cccc(OC(F)(F)F)c3)o2)C[C@H]1Cn1ccnn1 [Example 4, N-((3R,5S)-5-((1H-1,2,3-Triazol-1-yl)methyl)-1-cyanopyrrolidin-3-yl)-5-(3-(trifluoromethoxy)phenyl)oxazole-2-carboxamide]
2	N#Cc1ccc(C2CC2)c(-c2cnc(C(=O)N[C@@H]3C[C@@H](Cn4ccnn4)N(C#N)C3)o2)c1 [Example 9, N-((3R,5S)-5-((1H-1,2,3-Triazol-1-yl)methyl)-1-cyanopyrrolidin-3-yl)-5-(5-cyano-2-cyclopropylphenyl)oxazole-2-carboxamide]
4	N#Cc1ccc(C2CC2)c(-c2nnc(C(=O)N[C@@H]3C[C@@H](Cn4ccnn4)N(C#N)C3)o2)c1 [Example 14, N-((3R,5S)-5-((1H-1,2,3-Triazol-1-yl)methyl)-1-cyanopyrrolidin-3-yl)-5-(5-cyano-2-cyclopropylphenyl)-1,3,4-oxadiazole-2-carboxamide]
8	N#CN1C[C@H](NC(=O)c2nnc(-c3cc(OC(F)(F)F)ccc3OC3CC3)o2)C[C@H]1Cn1ccnn1 [Example 15, N-((3R,5S)-5-((1H-1,2,3-Triazol-1-yl)methyl)-1-cyanopyrrolidin-3-yl)-5-(2-cyclopropoxy-5-(trifluoromethoxy)phenyl)-1,3,4-oxadiazole-2-carboxamide]
9	N#CN1C[C@H](NC(=O)c2cc(-c3cccc(OC(F)(F)F)c3)ccn2)C[C@H]1Cn1ccnn1 [Example 25, N-((3R,5S)-5-((1H-1,2,3-Triazol-1-yl)methyl)-1-cyanopyrrolidin-3-yl)-4-(3-(trifluoromethoxy)phenyl)picolinamide]
6	N#CN1C[C@H](NC(=O)c2nnc(-c3cc(OC(F)(F)F)ccc3Cl)o2)C[C@H]1Cn1ccnn1 [Example 42, N-((3R,5S)-5-((1H-1,2,3-Triazol-1-yl)methyl)-1-cyanopyrrolidin-3-yl)-5-(2-chloro-5-(trifluoromethoxy)phenyl)-1,3,4-oxadiazole-2-carboxamide]
12	N#CN1C[C@H](NC(=O)c2nnc(-c3cccc(OC(F)(F)F)c3)o2)C[C@H]1Cn1ccnn1 [Example 43, N-((3R,5S)-5-((1H-1,2,3-Triazol-1-yl)methyl)-1-cyanopyrrolidin-3-yl)-5-(3-(trifluoromethoxy)phenyl)-1,3,4-oxadiazole-2-carboxamide]
5	N#CN1C[C@H](NC(=O)c2nnc(-c3cc(OC(F)(F)F)ccc3C3CC3)o2)C[C@H]1Cn1cccn1 [Example 44, N-((3R,5S)-5-((1H-Pyrazol-1-yl)methyl)-1-cyanopyrrolidin-3-yl)-5-(2-cyclopropyl-5-(trifluoromethoxy)phenyl)-1,3,4-oxadiazole-2-carboxamide]
7	N#CN1C[C@H](NC(=O)c2nnc(-c3cc(OC(F)(F)F)ccc3C3CC3)o2)C[C@H]1Cn1nccn1 [Example 45, N-((3R,5S)-5-((2H-1,2,3-Triazol-2-yl)methyl)-1-cyanopyrrolidin-3-yl)-5-(2-cyclopropyl-5-(trifluoromethoxy)phenyl)-1,3,4-oxadiazole-2-carboxamide]
5	N#CN1C[C@H](NC(=O)c2nnc(-c3cc(OC(F)(F)F)ccc3C3CC3)o2)C[C@H]1Cn1cncn1 [Example 47, N-((3R,5S)-5-((1H-1,2,4-Triazol-1-yl)methyl)-1-cyanopyrrolidin-3-yl)-5-(2-cyclopropyl-5-(trifluoromethoxy)phenyl)-1,3,4-oxadiazole-2-carboxamide]
5	CCCc1ccc(OC(F)(F)F)cc1-c1nnc(C(=O)N[C@@H]2C[C@@H](Cn3ccnn3)N(C#N)C2)o1 [Example 48, N-((3R,5S)-5-((1H-1,2,3-Triazol-1-yl)methyl)-1-cyanopyrrolidin-3-yl)-5-(2-propyl-5-(trifluoromethoxy)phenyl)-1,3,4-oxadiazole-2-carboxamide]
6	N#CN1C[C@H](NC(=O)c2nnc(-c3cc(OC(F)(F)F)ccc3C3CC3)o2)C[C@H]1Cn1cnnc1 [Example 49, N-((3R,5S)-5-((4H-1,2,4-Triazol-4-yl)methyl)-1-cyanopyrrolidin-3-yl)-5-(2-cyclopropyl-5-(trifluoromethoxy)phenyl)-1,3,4-oxadiazole-2-carboxamide]
5	N#CN1C[C@H](NC(=O)c2nc(-c3cc(OC(F)(F)F)ccc3C3CC3)no2)C[C@H]1Cn1ccnn1 [Example 50, N-((3R,5S)-5-((1H-1,2,3-Triazol-1-yl)methyl)-1-cyanopyrrolidin-3-yl)-3-(2-cyclopropyl-5-(trifluoromethoxy)phenyl)-1,2,4-oxadiazole-5-carboxamide]
14	N#CN1C[C@H](NC(=O)c2noc(-c3cc(OC(F)(F)F)ccc3C3CC3)n2)C[C@H]1Cn1ccnn1 [Example 51, N-((3R,5S)-5-((1H-1,2,3-Triazol-1-yl)methyl)-1-cyanopyrrolidin-3-yl)-5-(2-cyclopropyl-5-(trifluoromethoxy)phenyl)-1,2,4-oxadiazole-3-carboxamide]
